Assay results from ChEMBL document CHEMBL5291721, “A preclinical secondary pharmacology resource illuminates target-adverse drug reaction associations of marketed drugs” (Nat Commun, 2023).

Assays:
Androgen receptor [1] = target: T1, Androgen receptor (Rattus norvegicus, UniProt P15207); type: functional
T1 sequence (P15207 whole entry): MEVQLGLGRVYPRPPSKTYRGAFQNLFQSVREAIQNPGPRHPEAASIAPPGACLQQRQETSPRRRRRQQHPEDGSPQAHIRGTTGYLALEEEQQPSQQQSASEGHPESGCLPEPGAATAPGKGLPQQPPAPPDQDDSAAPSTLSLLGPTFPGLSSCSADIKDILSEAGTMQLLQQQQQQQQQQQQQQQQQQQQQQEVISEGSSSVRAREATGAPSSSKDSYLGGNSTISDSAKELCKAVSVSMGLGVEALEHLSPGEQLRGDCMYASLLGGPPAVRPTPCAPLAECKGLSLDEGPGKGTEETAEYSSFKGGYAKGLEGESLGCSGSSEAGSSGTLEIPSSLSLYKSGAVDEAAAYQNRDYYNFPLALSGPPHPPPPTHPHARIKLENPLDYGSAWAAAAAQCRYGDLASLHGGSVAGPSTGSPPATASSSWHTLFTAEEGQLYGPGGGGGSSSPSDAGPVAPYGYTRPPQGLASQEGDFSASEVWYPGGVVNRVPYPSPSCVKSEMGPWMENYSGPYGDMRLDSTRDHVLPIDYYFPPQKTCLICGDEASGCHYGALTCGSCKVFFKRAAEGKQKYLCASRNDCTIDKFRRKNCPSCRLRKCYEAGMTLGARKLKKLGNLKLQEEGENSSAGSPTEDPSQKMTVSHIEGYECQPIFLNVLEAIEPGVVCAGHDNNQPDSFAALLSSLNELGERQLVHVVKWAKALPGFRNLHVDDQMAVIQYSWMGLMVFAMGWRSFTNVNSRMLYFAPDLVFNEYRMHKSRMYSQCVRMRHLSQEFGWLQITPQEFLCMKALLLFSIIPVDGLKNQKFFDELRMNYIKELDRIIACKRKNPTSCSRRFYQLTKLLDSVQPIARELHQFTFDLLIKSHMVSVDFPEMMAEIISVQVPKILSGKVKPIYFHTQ

Androgen receptor [2] = target: T1, Androgen receptor
[3] = target: Gamma-aminobutyric acid receptor subunit alpha-1/alpha-2/beta-2/gamma-2 (Homo sapiens, UniProt P14867+P18507+P47869+P47870); type: functional, cell-based
[4] = target: T2, Alpha-2A adrenergic receptor (Homo sapiens, UniProt P08913)
T2 sequence (P08913 whole entry): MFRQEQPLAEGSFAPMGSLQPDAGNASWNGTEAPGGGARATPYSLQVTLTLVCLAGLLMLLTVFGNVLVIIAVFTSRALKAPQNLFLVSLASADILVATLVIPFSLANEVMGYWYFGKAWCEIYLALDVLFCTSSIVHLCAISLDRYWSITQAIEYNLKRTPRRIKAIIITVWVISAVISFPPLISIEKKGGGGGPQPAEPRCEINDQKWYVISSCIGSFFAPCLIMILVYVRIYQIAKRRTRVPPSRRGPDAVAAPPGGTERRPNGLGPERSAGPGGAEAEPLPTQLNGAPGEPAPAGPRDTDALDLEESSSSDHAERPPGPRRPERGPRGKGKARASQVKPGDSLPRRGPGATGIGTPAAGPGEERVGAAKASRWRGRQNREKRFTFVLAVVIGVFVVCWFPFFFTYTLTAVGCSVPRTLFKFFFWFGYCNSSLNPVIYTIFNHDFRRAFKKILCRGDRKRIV

[5] = target: Beta-3 adrenergic receptor (Homo sapiens, UniProt P13945)
[6] = target: Voltage-dependent N-type calcium channel subunit alpha-1B (Rattus norvegicus, UniProt Q02294); type: functional
Progesterone receptor = target: T3, Progesterone receptor (Homo sapiens, UniProt P06401)
T3 sequence (P06401 whole entry): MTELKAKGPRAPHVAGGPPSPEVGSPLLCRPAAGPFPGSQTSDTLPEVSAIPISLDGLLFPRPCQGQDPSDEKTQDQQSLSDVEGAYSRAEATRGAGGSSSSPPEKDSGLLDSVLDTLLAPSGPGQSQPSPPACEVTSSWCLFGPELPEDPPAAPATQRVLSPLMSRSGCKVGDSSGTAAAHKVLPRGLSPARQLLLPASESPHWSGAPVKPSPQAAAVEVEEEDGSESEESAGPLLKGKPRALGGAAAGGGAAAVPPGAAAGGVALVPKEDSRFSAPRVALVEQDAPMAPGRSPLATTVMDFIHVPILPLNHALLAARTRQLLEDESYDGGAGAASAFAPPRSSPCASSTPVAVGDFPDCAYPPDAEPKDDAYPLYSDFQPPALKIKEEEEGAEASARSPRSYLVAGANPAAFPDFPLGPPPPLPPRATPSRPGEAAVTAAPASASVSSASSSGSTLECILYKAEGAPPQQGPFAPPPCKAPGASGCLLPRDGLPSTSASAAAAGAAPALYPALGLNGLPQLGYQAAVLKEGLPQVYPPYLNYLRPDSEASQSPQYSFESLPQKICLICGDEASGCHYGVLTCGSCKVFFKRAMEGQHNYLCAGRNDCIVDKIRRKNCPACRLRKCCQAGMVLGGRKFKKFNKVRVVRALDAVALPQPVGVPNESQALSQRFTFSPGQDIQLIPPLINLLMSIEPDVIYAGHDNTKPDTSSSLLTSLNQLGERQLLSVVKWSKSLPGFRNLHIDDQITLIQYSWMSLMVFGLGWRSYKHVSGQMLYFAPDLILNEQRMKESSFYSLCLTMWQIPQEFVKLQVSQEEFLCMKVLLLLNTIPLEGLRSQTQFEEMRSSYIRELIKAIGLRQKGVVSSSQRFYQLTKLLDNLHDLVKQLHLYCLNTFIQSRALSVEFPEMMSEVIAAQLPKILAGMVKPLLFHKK
Also: assay procedure not described here.

Beta-3 adrenergic receptor, sequence (P13945 whole entry): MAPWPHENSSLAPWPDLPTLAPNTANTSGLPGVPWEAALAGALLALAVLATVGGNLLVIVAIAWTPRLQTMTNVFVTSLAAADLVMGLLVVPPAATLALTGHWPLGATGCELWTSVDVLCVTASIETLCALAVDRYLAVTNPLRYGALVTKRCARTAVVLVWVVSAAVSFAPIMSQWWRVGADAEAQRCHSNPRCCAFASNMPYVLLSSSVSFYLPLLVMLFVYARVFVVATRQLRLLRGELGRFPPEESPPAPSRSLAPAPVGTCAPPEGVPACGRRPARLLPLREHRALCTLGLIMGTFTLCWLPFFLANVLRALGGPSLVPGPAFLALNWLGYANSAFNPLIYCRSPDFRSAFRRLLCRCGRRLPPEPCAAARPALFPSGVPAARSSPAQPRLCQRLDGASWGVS
Voltage-dependent N-type calcium channel subunit alpha-1B, sequence (Q02294 whole entry): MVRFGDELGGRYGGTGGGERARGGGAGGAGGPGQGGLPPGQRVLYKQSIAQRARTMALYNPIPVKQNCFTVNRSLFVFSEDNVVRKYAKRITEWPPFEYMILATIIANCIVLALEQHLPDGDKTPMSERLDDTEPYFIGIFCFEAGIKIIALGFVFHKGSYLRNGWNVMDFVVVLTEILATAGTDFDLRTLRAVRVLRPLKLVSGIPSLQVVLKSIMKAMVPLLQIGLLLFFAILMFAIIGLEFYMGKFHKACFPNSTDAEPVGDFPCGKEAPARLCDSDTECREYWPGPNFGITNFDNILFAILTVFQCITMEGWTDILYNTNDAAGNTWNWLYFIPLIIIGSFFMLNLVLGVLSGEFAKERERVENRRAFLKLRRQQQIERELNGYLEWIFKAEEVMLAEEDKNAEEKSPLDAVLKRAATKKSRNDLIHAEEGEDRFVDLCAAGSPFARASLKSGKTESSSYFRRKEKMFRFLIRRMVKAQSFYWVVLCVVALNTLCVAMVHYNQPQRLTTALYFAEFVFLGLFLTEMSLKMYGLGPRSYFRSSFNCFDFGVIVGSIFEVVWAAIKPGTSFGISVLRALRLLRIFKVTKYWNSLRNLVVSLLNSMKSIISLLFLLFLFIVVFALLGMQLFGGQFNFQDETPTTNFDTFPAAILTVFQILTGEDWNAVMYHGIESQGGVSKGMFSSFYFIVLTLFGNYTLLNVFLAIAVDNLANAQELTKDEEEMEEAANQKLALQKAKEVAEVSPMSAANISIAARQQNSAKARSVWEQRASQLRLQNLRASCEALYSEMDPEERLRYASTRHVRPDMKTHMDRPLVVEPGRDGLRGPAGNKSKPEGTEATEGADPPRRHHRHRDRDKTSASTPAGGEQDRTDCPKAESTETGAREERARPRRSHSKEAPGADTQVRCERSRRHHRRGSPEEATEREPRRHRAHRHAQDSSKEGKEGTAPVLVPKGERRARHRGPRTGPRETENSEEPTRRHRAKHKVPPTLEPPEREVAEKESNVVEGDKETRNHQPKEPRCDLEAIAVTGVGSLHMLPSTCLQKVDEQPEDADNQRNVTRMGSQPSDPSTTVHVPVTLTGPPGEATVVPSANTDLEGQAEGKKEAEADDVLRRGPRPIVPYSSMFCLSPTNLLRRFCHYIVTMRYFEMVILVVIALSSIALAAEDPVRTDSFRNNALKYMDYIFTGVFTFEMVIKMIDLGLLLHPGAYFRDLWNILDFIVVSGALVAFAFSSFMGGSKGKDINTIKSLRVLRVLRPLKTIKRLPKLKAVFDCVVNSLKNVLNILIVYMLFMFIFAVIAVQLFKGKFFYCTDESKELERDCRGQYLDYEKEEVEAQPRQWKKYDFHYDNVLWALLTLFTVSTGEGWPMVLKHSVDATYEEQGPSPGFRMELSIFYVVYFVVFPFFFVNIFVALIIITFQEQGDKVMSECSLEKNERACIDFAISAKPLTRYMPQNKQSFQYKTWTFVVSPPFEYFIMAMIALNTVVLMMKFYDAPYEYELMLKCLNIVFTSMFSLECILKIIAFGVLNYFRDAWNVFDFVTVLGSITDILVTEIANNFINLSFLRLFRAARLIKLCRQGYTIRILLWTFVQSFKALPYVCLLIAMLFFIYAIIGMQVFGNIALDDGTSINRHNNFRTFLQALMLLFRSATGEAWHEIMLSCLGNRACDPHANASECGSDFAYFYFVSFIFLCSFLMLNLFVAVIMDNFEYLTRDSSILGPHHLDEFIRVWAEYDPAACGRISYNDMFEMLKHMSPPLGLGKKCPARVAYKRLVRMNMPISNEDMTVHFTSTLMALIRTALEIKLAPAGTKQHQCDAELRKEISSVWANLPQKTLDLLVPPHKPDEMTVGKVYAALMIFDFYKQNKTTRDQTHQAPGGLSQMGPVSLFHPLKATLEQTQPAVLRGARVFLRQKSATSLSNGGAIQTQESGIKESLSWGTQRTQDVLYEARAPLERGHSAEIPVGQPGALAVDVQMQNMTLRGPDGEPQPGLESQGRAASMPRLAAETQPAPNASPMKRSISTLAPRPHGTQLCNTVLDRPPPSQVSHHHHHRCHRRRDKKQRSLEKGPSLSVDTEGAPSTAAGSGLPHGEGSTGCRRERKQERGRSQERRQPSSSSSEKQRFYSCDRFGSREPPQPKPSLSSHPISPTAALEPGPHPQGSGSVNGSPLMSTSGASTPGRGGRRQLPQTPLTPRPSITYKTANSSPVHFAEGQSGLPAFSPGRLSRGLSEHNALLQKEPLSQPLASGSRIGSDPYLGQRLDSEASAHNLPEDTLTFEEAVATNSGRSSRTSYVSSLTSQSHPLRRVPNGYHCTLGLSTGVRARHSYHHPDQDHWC
Gamma-aminobutyric acid receptor subunit alpha-1/alpha-2/beta-2/gamma-2, sequence (P14867 whole entry): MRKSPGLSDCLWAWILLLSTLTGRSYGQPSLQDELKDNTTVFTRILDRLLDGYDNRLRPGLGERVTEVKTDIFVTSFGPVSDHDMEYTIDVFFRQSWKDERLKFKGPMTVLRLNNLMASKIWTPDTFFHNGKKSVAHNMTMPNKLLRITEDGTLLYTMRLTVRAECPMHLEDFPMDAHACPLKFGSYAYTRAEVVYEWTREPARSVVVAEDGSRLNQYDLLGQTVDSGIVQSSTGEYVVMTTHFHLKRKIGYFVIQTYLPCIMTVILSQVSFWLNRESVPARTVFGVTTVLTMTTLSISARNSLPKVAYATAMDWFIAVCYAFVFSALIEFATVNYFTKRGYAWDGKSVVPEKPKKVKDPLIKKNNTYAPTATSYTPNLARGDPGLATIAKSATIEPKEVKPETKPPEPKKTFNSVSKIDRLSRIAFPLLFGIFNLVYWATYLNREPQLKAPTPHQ
Gamma-aminobutyric acid receptor subunit alpha-1/alpha-2/beta-2/gamma-2, sequence (P47870 whole entry): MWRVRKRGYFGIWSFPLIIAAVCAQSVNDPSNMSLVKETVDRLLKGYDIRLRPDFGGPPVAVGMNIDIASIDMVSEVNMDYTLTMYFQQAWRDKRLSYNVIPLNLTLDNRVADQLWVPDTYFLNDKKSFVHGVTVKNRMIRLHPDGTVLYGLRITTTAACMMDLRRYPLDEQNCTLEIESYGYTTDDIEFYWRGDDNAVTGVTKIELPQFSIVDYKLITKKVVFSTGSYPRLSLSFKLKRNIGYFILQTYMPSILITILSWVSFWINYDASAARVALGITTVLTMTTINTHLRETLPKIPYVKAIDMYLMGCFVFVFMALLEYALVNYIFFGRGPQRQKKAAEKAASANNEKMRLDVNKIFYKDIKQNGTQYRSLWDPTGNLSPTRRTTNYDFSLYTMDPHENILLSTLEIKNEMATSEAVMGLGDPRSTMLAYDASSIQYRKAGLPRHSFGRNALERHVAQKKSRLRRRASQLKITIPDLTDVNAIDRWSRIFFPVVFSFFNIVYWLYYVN
Gamma-aminobutyric acid receptor subunit alpha-1/alpha-2/beta-2/gamma-2, sequence (P18507 whole entry): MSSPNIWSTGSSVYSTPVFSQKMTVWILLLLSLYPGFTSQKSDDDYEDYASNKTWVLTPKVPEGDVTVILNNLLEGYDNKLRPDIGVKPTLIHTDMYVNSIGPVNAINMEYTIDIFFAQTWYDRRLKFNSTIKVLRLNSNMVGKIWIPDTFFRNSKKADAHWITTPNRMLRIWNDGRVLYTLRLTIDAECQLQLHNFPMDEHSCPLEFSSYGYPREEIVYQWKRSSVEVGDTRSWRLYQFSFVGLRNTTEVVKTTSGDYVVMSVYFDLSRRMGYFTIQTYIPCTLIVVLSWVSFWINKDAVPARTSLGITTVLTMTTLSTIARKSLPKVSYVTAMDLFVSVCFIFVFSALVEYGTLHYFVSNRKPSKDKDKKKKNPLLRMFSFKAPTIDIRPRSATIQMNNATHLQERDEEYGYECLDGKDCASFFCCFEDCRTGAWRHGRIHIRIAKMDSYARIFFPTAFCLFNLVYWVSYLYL
Gamma-aminobutyric acid receptor subunit alpha-1/alpha-2/beta-2/gamma-2, sequence (P47869 whole entry): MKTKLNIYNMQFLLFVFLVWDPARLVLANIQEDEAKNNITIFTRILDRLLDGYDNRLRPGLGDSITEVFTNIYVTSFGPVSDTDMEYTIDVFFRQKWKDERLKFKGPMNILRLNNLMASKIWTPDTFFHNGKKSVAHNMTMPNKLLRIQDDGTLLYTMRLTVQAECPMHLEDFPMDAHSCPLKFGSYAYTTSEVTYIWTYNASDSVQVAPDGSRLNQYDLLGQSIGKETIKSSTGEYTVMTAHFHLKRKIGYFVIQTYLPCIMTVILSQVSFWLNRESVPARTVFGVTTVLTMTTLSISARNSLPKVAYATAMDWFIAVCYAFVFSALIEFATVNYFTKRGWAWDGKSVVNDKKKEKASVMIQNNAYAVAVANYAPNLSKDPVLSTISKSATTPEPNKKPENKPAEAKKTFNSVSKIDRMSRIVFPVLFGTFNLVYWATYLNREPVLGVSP

Structure (SMILES) | AC50 (Androgen receptor [1]) [µM] | AC50 (Androgen receptor [2]) [µM] | AC50 [3] [µM] | AC50 [4] [µM] | AC50 [5] [µM] | AC50 [6] [µM] | AC50 (Progesterone receptor) [µM]
CC(C)(C)NCC(O)c1cc(Cl)c(N)c(Cl)c1 (stereo unspecified) [CLENBUTEROL] | > 30 | > 30 | – | – | – | – | –
CCN(CC)C(=O)C1CN2CCc3cc(OC)c(OC)cc3C2CC1OC(C)=O (stereo unspecified) [BENZQUINAMIDE] | > 30 | > 10 | > 30 | 3.03 | – | – | –
COC1=C(OC)C(=O)C(CCCCCCCCCCO)=C(C)C1=O [IDEBENONE] | – | > 30 | – | > 10 | > 30 | > 10 | 27.6
CC(=O)OCC(CCn1cnc2cnc(N)nc21)COC(C)=O [FAMCICLOVIR] | – | > 30 | – | > 10 | > 30 | > 10 | > 30
